The target of one assay is T1, NAALADase (Homo sapiens, UniProt Q04609).
T1 construct: from tissue
Description: In vitro inhibition of NAALADase activity. It counts as biochemical. The conditions noted are these: 3-H-NAAG substrate, 37° C.; read-out: K1 (nM), in vitro inhibition of NAALADase activity. As to the method: Protocol For Assaying In Vitro Inhibition of NAALADase Activity
The following were combined in each assay tube: 100 μL of 10 mM CoCl2, 250 μL of 200 mM Tris chloride, 100 μL tissue, 100 μL of 10 mM NAALADase inhibitor in Bakers H2O, and Bakers H2O to make a total volume of 950 μL. Each tube was then incubated for 10 minutes in a 37° C. water bath. 50 μL of 3-H-NAAG was then added to each assay tube and incubated for an additional 15 minutes in a 37° C. water bath. The assay was stopped by adding 1.0 ml of 0.1 M sodium phosphate.
Glutamate released by the action of the NAALADase enzyme was separated from the assay solution using an anion exchange resin. The resin was equilibrated to 25° C., 2.0 ml of the resin was added to a Pasteur pipette pre-loaded with a single glass bead, and each column was washed twice with distilled H2O. A column was placed over a scintillation vial and 200 μL of an assay sample was loaded onto the column. After draining, glutamate was eluted using two 1.0 ml washes of 1 M formic acid. After addition of 10 ml of scintillation cocktail, each sample was counted for 2 minutes on a scintillation counter.

In another assay the test system is cortical cell cultures. Briefly: In vitro assay on ischemia (potassium cyanide and 2-deoxyglucose insult). It counts as cell-based. The conditions noted are these: 1 h, read-out: EC50, concentration required to cause a 50% reduction in glutamate toxicity following an ischemic insult. As to the method: To examine the in vitro effect of the compounds of formula I on ischemia, cortical cell cultures were treated with various compounds of formula I during an ischemic insult utilizing potassium cyanide and 2-deoxyglucose, and for one hour thereafter (for experimental details, see Vornov et al., J. Neurochem., Vol. 65, No. 4, pp. 1681-1691 (1995)). Neuroprotective effect is expressed as EC50, the concentration of the compound which is required to cause a 50% reduction in glutamate toxicity following an ischemic insult.

Ki and EC50 data for two compounds are collected here from patent US6348464B1, “Pyrrolecarbonylimino derivatives as naaladase inhibitors” (Guilford Pharmaceuticals, Inc., priority 1999, dated 2002).

Counter-ions that a name gives are not always drawn. Like-named read-outs stand apart in the source and are kept apart here. Bounds are passed on as bounds.

T1 sequence (Q04609 whole entry): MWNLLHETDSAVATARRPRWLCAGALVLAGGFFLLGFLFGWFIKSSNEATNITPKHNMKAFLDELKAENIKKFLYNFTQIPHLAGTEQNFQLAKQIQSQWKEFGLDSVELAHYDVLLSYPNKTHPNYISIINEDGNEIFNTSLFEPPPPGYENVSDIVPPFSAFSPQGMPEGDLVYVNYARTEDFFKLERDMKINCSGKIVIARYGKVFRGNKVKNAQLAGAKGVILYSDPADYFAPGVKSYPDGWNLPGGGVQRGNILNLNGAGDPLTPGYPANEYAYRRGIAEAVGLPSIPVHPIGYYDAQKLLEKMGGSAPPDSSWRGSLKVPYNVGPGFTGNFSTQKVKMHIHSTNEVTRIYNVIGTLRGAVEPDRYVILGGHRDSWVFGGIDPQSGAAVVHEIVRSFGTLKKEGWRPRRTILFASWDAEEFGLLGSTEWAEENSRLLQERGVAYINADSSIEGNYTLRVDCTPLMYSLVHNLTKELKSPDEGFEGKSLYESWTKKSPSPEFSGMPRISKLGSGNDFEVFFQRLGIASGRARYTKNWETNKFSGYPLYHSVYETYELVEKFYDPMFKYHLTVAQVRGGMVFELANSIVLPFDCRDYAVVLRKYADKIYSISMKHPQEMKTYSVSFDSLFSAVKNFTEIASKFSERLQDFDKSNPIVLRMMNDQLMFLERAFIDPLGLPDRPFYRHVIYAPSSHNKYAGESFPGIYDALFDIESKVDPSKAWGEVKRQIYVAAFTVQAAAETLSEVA

In the case of `O=C(Nc1ccc(S(=O)(=O)O)c2cc(S(=O)(=O)O)cc(S(=O)(=O)O)c12)c1cccc([N+](=O)[O-])c1` [8-(3-nitrobenzamido)-1,3,5-naphthalenetrisulfonic acid], the Ki on NAALADase was 20200 nM. Besides, the EC50 in the assay on cortical cell cultures (cortical cell cultures, treated during potassium cyanide and 2-deoxyglucose insult and for one hour thereafter) was above 1000 nM.

As for `Cc1ccc(C(=O)Nc2ccc(S(=O)(=O)O)c3cc(S(=O)(=O)O)cc(S(=O)(=O)O)c23)cc1NC(=O)c1cccc(NC(=O)Nc2cccc(C(=O)Nc3cc(C(=O)Nc4ccc(S(=O)(=O)O)c5cc(S(=O)(=O)O)cc(S(=O)(=O)O)c45)ccc3C)c2)c1` [Suramin, sodium salt, 8,8′-[carbonylbis[imino-3,1-phenylenecarbonylimino (4-methyl-3,1-phenylene)carbonylimino]]bis-1,3,5-naphthalenetrisulfonic acid hexasodium salt], the Ki at NAALADase worked out at 527 nM. The EC50 in the assay with cortical cell cultures worked out at 24.7 nM.
